Values quoted from earlier work, collected in US7208285B2 (priority 2001, dated 2007).

Biological target: BoNT/A (Clostridium botulinum, UniProt P0DPI1)
Sequence (P0DPI1 whole entry, looked up): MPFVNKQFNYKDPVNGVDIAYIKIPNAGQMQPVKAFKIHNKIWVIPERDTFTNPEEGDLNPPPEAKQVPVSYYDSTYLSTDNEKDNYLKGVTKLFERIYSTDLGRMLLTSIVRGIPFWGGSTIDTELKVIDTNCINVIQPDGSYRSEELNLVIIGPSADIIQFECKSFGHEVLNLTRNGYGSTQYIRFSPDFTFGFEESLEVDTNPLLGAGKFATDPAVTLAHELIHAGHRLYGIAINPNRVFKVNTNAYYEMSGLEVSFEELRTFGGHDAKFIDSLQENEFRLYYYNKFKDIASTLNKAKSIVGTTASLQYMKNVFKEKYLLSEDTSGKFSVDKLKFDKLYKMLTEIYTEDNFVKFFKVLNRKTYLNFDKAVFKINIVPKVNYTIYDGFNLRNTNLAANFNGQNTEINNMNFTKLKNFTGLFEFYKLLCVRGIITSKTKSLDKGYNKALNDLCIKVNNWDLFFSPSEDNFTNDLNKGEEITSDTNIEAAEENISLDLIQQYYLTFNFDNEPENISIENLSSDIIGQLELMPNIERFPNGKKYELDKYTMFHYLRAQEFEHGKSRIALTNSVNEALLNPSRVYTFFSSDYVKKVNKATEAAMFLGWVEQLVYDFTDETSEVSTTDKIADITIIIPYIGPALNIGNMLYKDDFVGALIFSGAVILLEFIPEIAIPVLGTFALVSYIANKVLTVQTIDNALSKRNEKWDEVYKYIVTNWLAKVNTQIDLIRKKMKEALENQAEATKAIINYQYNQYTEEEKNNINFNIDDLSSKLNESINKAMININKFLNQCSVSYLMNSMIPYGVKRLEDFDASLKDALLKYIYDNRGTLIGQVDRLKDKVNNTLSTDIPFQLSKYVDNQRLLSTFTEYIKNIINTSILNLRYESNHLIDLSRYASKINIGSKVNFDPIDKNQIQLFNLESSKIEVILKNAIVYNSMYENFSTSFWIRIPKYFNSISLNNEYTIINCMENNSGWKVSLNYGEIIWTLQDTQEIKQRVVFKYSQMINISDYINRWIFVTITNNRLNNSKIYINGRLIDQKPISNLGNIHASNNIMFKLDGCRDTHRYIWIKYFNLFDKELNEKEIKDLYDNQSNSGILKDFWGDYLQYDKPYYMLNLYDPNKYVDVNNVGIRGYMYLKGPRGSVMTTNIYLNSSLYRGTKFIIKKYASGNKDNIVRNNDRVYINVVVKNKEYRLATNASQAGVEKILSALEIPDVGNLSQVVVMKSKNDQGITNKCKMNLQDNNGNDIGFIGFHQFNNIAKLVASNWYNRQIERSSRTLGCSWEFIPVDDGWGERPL

| Sequence | Relative Rate | relative rate of proteolysis |
| --- | --- | --- |
| SNKTRIDEANQRASKML [Peptide T14S] | 0.26 | 0.26 |
| SNKTRIDEAAQRATKML [Peptide N10A] | 0.06 |  |
| SNKTRIDEANNRATKML [Peptide Q11N] | 0.66 | 0.66 |
| SNKTRIDEANQRATKAL [Peptide M16A] | 0.38 | 0.38 |
| SNKTRTDEANQRATKM [[1–16]] | 1.17 |  |
| SNKTRIDEANQRATAML [Peptide K15A] | 0.12 | 0.12 |
| SNKTRIDEANQRATKXL [Peptide M16X] | 1.20 | 1.20 |
| SNKTRIDQANQRATKML [Peptide E8Q] | 2.08 | 2.08 |
| SNKTRIDEANBRATKML [Peptide Q11B] | 0.25 | 0.25 |
| SNKTRINEANQRATKML [Peptide D7N] | 0.23 | 0.23 |
| SNKTRIDEANQRBTKML [Peptide A13B] | 0.79 | 0.79 |
| SNKTRIDEANARATKML [Peptide Q11A] | 0.19 | 0.19 |
| SNKTRIDEANQRATKML [[1–17]] | 1.00 |  |
| SNKTRIDEANQRATK [[1–15]] | 0.03 |  |
| SNKTRIDEBNQRATKML [Peptide A9B] | 0.38 | 0.38 |
| SNKTRIDEANQRABKML [Peptide T14B] | 1.20 | 1.20 |
